The source of these data is ChEMBL document CHEMBL3044597, “Docking-based 3D-QSAR modeling of the inhibitors of IMP metallo--lactamase” (Med Chem Res, 2013).

Usually IC50 stands for the midpoint of a concentration-inhibition curve.

In the experiment the target is Beta-lactamase (Pseudomonas aeruginosa, UniProt Q79MP6). Briefly: Inhibition of Pseudomonas aeruginosa IMP1 metallo-beta-lactamase.
Beta-lactamase, sequence (Q79MP6 whole entry): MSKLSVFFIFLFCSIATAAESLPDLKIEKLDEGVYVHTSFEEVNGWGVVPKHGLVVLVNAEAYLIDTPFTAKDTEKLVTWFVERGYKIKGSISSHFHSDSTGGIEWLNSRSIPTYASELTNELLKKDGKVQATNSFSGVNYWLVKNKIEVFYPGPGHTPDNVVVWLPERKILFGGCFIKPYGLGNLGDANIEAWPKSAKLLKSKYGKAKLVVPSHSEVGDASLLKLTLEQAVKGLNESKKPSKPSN
Regarding `C=CCOC(=O)N[C@H](C)C(=O)S[C@@H](C)Cc1ccc(-c2ccccc2)cc1`, the IC50 was 4.4 µM. With `O=C(S[C@H](Cc1ccc2oc3ccccc3c2c1)C(=O)O)c1ccccc1` the figure was 0.0013 µM. The figure for `C[C@@H](Cc1ccc(-c2ccccc2)cc1)SC(=O)[C@@H](C)NC(=O)Cc1ccc(N(C)C)cc1` is 55 µM; for `COc1ccc(CC(=O)N[C@H](C)C(=O)S[C@@H](C)Cc2ccc(-c3ccccc3)cc2)cc1` it is 12 µM; for `C[C@@H](Cc1ccc(-c2ccccc2)cc1)SC(=O)[C@@H](C)NC(=O)CCCC(=O)O` it is 91 µM. The molecule `C[C@@H](Cc1ccc(-c2ccccc2)cc1)SC(=O)[C@@H](C)NC(=O)Cc1cccc2ccccc12` had an IC50 of 12 µM. For `O=C(O)[C@H](Cc1ccccc1)[C@@H](Cc1ccccc1)C(=O)O` [(2R,3R)-2,3-DIBENZYLSUCCINIC ACID], the IC50 was 0.21 µM. The figure for `O=C(O)[C@H](S)Cc1ccc2oc3ccccc3c2c1` is 0.023 µM.

As to `C[C@@H](Cc1ccc(-c2ccccc2)cc1)SC(=O)[C@@H](C)NC(=O)Cc1ccc(O)cc1`, the IC50 was 3.1 µM.

`C/C=C/C(=O)N[C@H](C)C(=O)S[C@@H](C)Cc1ccc(-c2ccccc2)cc1` had an IC50 of 33 µM. `CC(=O)S[C@H](Cc1ccccc1)C(=O)O` gave an IC50 of 12 µM. In the case of `C=CCOC(=O)N[C@H](C)C(=O)S[C@@H](C)Cc1ccc2oc3ccccc3c2c1`, half-maximal inhibition (IC50) required 2.9 µM. With `C[C@@H](Cc1ccc(-c2ccccc2)cc1)SC(=O)[C@@H](C)NC(=O)Cc1cccnc1` the figure was 32 µM; with `O=C(S[C@H](Cc1ccccc1)C(=O)O)c1ccccc1`, 0.064 µM; with `CC(=O)N[C@H](C)C(=O)S[C@@H](C)Cc1ccc(-c2ccccc2)cc1`, 18 µM. With `COc1cccc(C(=O)N[C@H](C)C(=O)S[C@@H](C)Cc2ccc(-c3ccccc3)cc2)c1` the figure was 38 µM; with `C[C@@H](Cc1ccc(-c2ccccc2)cc1)SC(=O)[C@@H](C)NC(=O)CNC(=O)c1ccccc1`, 50 µM; with `C[C@@H](Cc1ccc(-c2ccccc2)cc1)SC(=O)[C@@H](C)NC(=O)c1ccc2ccccc2c1`, 18 µM. In turn, `O=C(O)[C@@H](Cc1ccccc1)[C@H](Cc1ccccc1)C(=O)O` gave an IC50 of 0.0027 µM.

Molecule `C[C@@H](Cc1ccc(-c2ccccc2)cc1)SC(=O)[C@@H](C)NC(=O)CCC(=O)c1ccccc1` had an IC50 of 0.25 µM. The figure for `O=C(S[C@@H](Cc1ccccc1)C(=O)O)c1ccccc1` is 2.5 µM. `O=C(O)[C@H](S)Cc1ccccc1` gave an IC50 of 0.0859 µM.

`COc1cc(OC)c(C(=O)N[C@H](C)C(=O)S[C@@H](C)Cc2ccc(-c3ccccc3)cc2)c(OC)c1` had a concentration for half-maximal inhibition (IC50) of 46 µM.

Regarding `C[C@@H](Cc1ccc(-c2ccccc2)cc1)SC(=O)[C@@H](C)NC(=O)COc1ccccc1`, the 50% inhibitory concentration (IC50) was 1 µM. The figure for `C[C@@H](Cc1ccc(-c2ccccc2)cc1)SC(=O)[C@@H](C)NC(=O)CSCC(=O)O` is 13 µM; for `O=C(O)[C@@H](Cc1ccccc1)[C@H](Cc1ccc2c(c1)OCO2)C(=O)O` it is 0.0037 µM; for `C[C@@H](Cc1ccccc1)SC(=O)[C@@H](C)NC(=O)c1ccccc1` it is 20 µM. The figure for `C[C@@H](Cc1ccc(-c2ccccc2)cc1)SC(=O)[C@@H](C)NC(=O)/C=C/c1ccccc1` is 11 µM; for `O=C(O)[C@@H](S)Cc1ccc(-c2ccccc2)cc1` it is 1.2 µM; for `CCC(=O)N[C@H](C)C(=O)S[C@@H](C)Cc1ccc(-c2ccccc2)cc1` it is 9.51 µM. With `CCCCC(=O)N[C@H](C)C(=O)S[C@@H](C)Cc1ccc(-c2ccccc2)cc1` the figure was 4.8 µM.

Consider `C[C@@H](Cc1ccc(-c2ccccc2)cc1)SC(=O)[C@@H](C)NC(=O)CCc1ccccc1`, for which it took 15 µM to reach half-maximal inhibition (IC50). With `CC(=O)S[C@H](Cc1ccc(-c2ccccc2)cc1)C(=O)O` the figure was 0.0839 µM; with `C[C@@H](Cc1ccc2oc3ccccc3c2c1)SC(=O)[C@@H](C)NC(=O)c1ccccc1`, 1.5 µM. In turn, `O=C(O)[C@H](S)Cc1ccc(-c2ccccc2)cc1` showed an IC50 of 0.057 µM.

In turn, `CC(C)C(=O)N[C@H](C)C(=O)S[C@@H](C)Cc1ccc(-c2ccccc2)cc1` gave an IC50 of 9.71 µM. Take `C[C@@H](Cc1ccc(-c2ccccc2)cc1)SC(=O)[C@@H](C)NC(=O)Cc1ccccc1Cc1ccccc1`: inhibition was half-maximal at 24 µM (IC50). The figure for `CCCCCC(=O)N[C@H](C)C(=O)S[C@@H](C)Cc1ccc(-c2ccccc2)cc1` is 13 µM; for `COc1ccc(C(=O)N[C@H](C)C(=O)S[C@@H](C)Cc2ccc(-c3ccccc3)cc2)cc1` it is 29 µM; for `C[C@@H](Cc1ccc(-c2ccccc2)cc1)SC(=O)[C@@H](C)NC(=O)Cc1ccccc1` it is 5.79 µM. The figure for `C[C@@H](Cc1ccc(-c2ccccc2)cc1)SC(=O)[C@@H](C)NC(=O)c1ccccc1` is 3.6 µM. The molecule `O=C(O)[C@@H](S)Cc1ccc2oc3ccccc3c2c1` gave an IC50 of 0.25 µM.

For `CCCC(=O)N[C@H](C)C(=O)S[C@@H](C)Cc1ccc(-c2ccccc2)cc1`, half-maximal inhibition (IC50) was put at 9.29 µM. Consider `C[C@@H](Cc1ccc(-c2ccccc2)cc1)SC(=O)[C@@H](C)NC(=O)c1cccc(N(C)C)c1`, for which it took 15 µM to reach half-maximal inhibition (IC50). With `O=C(O)[C@@H](Cc1ccc2c(c1)OCO2)[C@H](Cc1ccc2c(c1)OCO2)C(=O)O` the figure was 0.00899 µM; with `C[C@@H](c1ccccc1)[C@H](C(=O)O)[C@H](Cc1ccccc1)C(=O)O`, 0.013 µM. On to `CC(C)CC(=O)N[C@H](C)C(=O)S[C@@H](C)Cc1ccc(-c2ccccc2)cc1`, for which the IC50 is 5.3 µM.

Turning to `CC(=O)N[C@H](C)C(=O)S[C@@H](C)Cc1ccc2oc3ccccc3c2c1`, the IC50 is 2 µM.
